Experimental data: the NIST ThermoML archive (doi:10.1016/j.jct.2016.12.015)

Conditions: 101.33 kPa, Crystal, Small (less than 1 g) adiabatic calorimetry

C[C@H]1C[C@@H]2[C@H]([C@@H](O)C[C@@]3(C)[C@H]2CC[C@]3(O)C(=O)CO)[C@@]2(C)C=CC(=O)C=C12 [Methylprednisolone]
Conditions | molar entropy [J/K/mol]
5 K | 0.328
10 K | 2.37
15 K | 6.133
20 K | 11.27
25 K | 17.53
30 K | 24.43
35 K | 31.67
40 K | 39.13
45 K | 46.76
50 K | 54.53
60 K | 70.39
70 K | 86.6
80 K | 103
90 K | 119.5
100 K | 136.1
110 K | 152.7
120 K | 169.2
130 K | 185.7
140 K | 202.1
150 K | 218.5
160 K | 234.8
170 K | 251
180 K | 267.2
190 K | 283.3
200 K | 299.3
210 K | 315.3
220 K | 331.3
230 K | 347.2
240 K | 363.1
250 K | 379
260 K | 394.8
270 K | 410.6
280 K | 426.4
290 K | 442.3
298.15 K | 455.2
300 K | 458.1
310 K | 473.9
320 K | 489.8
330 K | 505.6
340 K | 521.4
350 K | 537.3
